Laboratory results published in patent US5373000A, “7Beta-(thiadiazolyl)-2-iminoacetamido-3cephem compounds” (Eisai Co., Ltd., priority 1985, dated 1994).
≈ marks a conversion by molar mass, not a printed value. Where two headings read alike, the source gives them in different places.

How the values were obtained:
Staph. aureus 209-P = experiment: Antibacterial activities, MIC; format: cell-based
Escher. coli NIHJ = experiment: Antibacterial activities, MIC; format: cell-based
Kleb Pneumoniae EK-6 = experiment: Antibacterial activities, MIC; format: cell-based
Ser. marcescens ES-75 = experiment: Antibacterial activities, MIC; format: cell-based
Morg. morganii EP-14 = experiment: Antibacterial activities, MIC; format: cell-based
Pseud. aeruginosa EP-01 = experiment: Antibacterial activities, MIC; format: cell-based
in vivo = conditions: mouse, iv
[1] = Staphylococcus aureus, read-out: MIC
[2] = Escherichia coli, read-out: MIC
[3] = Serratia marcescens, ES75, read-out: MIC
[4] = Morganella morganii, EP14, Morg. morganii EP-14, read-out: MIC
[5] = Pseudomonas aeruginosa, EP01, Pseud. aeruginosa EP-01, read-out: MIC

SMILES	MIC (Staph. aureus 209-P; [1]) [µg/mL]	MIC (Escher. coli NIHJ; [2]) [µg/mL]	MIC (Kleb Pneumoniae EK-6; read-out: MIC) [µg/mL]	MIC (Ser. marcescens ES-75; [3]) [µg/mL]	MIC (Morg. morganii EP-14; [4]) [µg/mL]	MIC (Pseud. aeruginosa EP-01; [5]) [µg/mL]	LD50 (in vivo) [mg/kg]	MIC (Staph. aureus 209-P) [µg/mL]	MIC (Escher. coli NIHJ) [µg/mL]	MIC (Kleb Pneumoniae EK-6) [µg/mL]	MIC (Ser. marcescens ES-75) [µg/mL]	MIC (Morg. morganii EP-14; Morg. morganii EP-14) [µg/mL]	MIC (Pseud. aeruginosa EP-01; Pseud. aeruginosa EP-01) [µg/mL]
CO/N=C(\C(=O)N[C@@H]1C(=O)N2C(C(=O)[O-])=C(/C=C/C[N+](C)(C)CC(N)=O)CS[C@H]12)c1nsc(N)n1 [Example 1, 7β-[2-(5-Amino-1,2,4-thiadiazol-3-yl)-(Z)-2-methoxyiminoacetamido]-3-[(E)-3-(carbamoylmethyldimethylammonio)-1-propen-1-yl)-3-cephem-4-carboxylate]	0.4 (≈ 0.763 µM)	0.05 (≈ 0.0953 µM)	0.05 (≈ 0.0953 µM)	0.1 (≈ 0.191 µM)	0.05 (≈ 0.0953 µM)	0.8 (≈ 1.53 µM)	≥ 3000	–	–	–	–	–	–
CO/N=C(\C(=O)N[C@@H]1C(=O)N2C(C(=O)[O-])=C(/C=C/C[N+](C)(C)Cc3nnco3)CS[C@H]12)c1nsc(N)n1 [Example 20, 7β-[2-(5-Amino-1,2,4-thiadiazol-3-yl)-(Z)-2-methoxyiminoacetamido]-3-[(E)-3-[(1,3,4-oxadiazol-2-yl)methyldimethylammonio]-1-propen-1-yl]-3-cephem-4-carboxylate]	0.4 (≈ 0.728 µM)	≤ 0.025	≤ 0.025	0.1 (≈ 0.182 µM)	0.05 (≈ 0.091 µM)	0.8 (≈ 1.46 µM)	≥ 3000	–	–	–	–	–	–
CO/N=C(\C(=O)N[C@@H]1C(=O)N2C(C(=O)[O-])=C(/C=C/C[N+]3(C)CCN(C=N)CC3)CS[C@H]12)c1nsc(N)n1 [Example 28, 7β-[2-(5-Amino-1,2,4-thiadiazol-3-yl)-(Z)-2-methoxyiminoacetamido]-3-[(E)-3-(1-methyl-4-formimidoyl-1-piperazinio)-1-propen-1-yl]-3-cephem-4-carboxylate]	0.4 (≈ 0.728 µM)	0.05 (≈ 0.091 µM)	0.1 (≈ 0.182 µM)	0.2 (≈ 0.364 µM)	0.1 (≈ 0.182 µM)	1.56 (≈ 2.84 µM)	–	–	–	–	–	–	–
CO/N=C(\C(=O)N[C@@H]1C(=O)N2C(C(=O)[O-])=C(/C=C/C[N+]3(C)CCN(C(N)=O)CC3)CS[C@H]12)c1nsc(N)n1 [Example 29, 7β-[2-(5-Amino-1,2,4-thiadiazol-3-yl)-(Z)-2-methoxyiminoacetamido]-3-[(E)-3-(1-methyl-4-carbamoyl-1-piperazinio)-1-propen-1-yl]-3-cephem-4-carboxylate]	0.4 (≈ 0.707 µM)	0.05 (≈ 0.0884 µM)	0.05 (≈ 0.0884 µM)	0.1 (≈ 0.177 µM)	0.05 (≈ 0.0884 µM)	1.56 (≈ 2.76 µM)	–	–	–	–	–	–	–
CO/N=C(\C(=O)N[C@@H]1C(=O)N2C(C(=O)[O-])=C(/C=C/C[N+]3(C)CCS(=O)(=O)CC3)CS[C@H]12)c1nsc(N)n1 [Example 31, 7β-[2-(5-Amino-1,2,4-thiadiazol-3-yl)-(Z)-2-methoxyiminoacetamido]-3-[(E)-3-(1,1-dioxo-4-methyl-4-thiomorpholinio)-1-propen-1-yl]-3-cephem-4-carboxylate]	0.4 (≈ 0.7 µM)	0.05 (≈ 0.0875 µM)	≤ 0.025	0.1 (≈ 0.175 µM)	0.05 (≈ 0.0875 µM)	0.8 (≈ 1.4 µM)	–	–	–	–	–	–	–
CO/N=C(\C(=O)N[C@@H]1C(=O)N2C(C(=O)[O-])=C(/C=C/C[N+]34CCN(CC3)CC4)CS[C@H]12)c1nsc(N)n1 [Example 32, 7β-[2-(5-Amino-1,2,4-thiadiazol-3-yl)-(Z)-2-methoxyiminoacetamido]-3-[(E)-3-(1,4-diazabicyclo[2,2,2]octan-1-io)-1-propen-1-yl]-3-cephem-4-carboxylate]	0.2 (≈ 0.374 µM)	≤ 0.025	≤ 0.025	0.1 (≈ 0.187 µM)	0.05 (≈ 0.0935 µM)	0.8 (≈ 1.5 µM)	–	–	–	–	–	–	–
CO/N=C(\C(=O)N[C@@H]1C(=O)N2C(C(=O)[O-])=C(/C=C/C[N+]3(C)CCN(C)CC3)CS[C@H]12)c1nsc(N)n1 [Example 33, 7β-[2-(5-Amino-1,2,4-thiadiazol-3-yl)-(Z)-2-methoxyiminoacetamido]-3-[(E)-3-(1,4-dimethyl-1-piperazinio)-1-propen-1-yl]-3-cephem-4-carboxylate]	0.2 (≈ 0.373 µM)	≤ 0.025	≤ 0.025	0.05 (≈ 0.0932 µM)	≤ 0.025	1.56 (≈ 2.91 µM)	≥ 3000	–	–	–	–	–	–
CO/N=C(\C(=O)N[C@@H]1C(=O)N2C(C(=O)[O-])=C(/C=C/C[N+]3(C)CC=C(C(N)=O)CC3)CS[C@H]12)c1nsc(N)n1 (stereo partly drawn) [Example 34, 7β-[2-(5-Amino-1,2,4-thiadiazol-3-yl)-(Z)-2-methoxyiminoacetamido]-3-[(E)-3-(1-methyl-4-carbamoyl-1,2,3,6-tetrahydropyridinio)-1-propen-1-yl]-3-cephem-4-carboxylate]	0.2 (≈ 0.355 µM)	≤ 0.025	0.1 (≈ 0.178 µM)	0.1 (≈ 0.178 µM)	0.05 (≈ 0.0889 µM)	0.8 (≈ 1.42 µM)	–	–	–	–	–	–	–
CO/N=C(\C(=O)N[C@@H]1C(=O)N2C(C(=O)[O-])=C(/C=C/C[N+](C)(C)CCC(N)=O)CS[C@H]12)c1nsc(N)n1 [Example 35, 7β-[2-(5-Amino-1,2,4-thiadiazol-3-yl)-(Z)-2-methoxyiminoacetamido]-3-[(E)-3-[N,N-dimethyl-N-(2-carbamoylethyl)ammonio]-1-propen-1-yl]-3-cephem-4-carboxylate]	0.2 (≈ 0.371 µM)	≤ 0.025	0.1 (≈ 0.186 µM)	0.05 (≈ 0.0928 µM)	0.05 (≈ 0.0928 µM)	0.8 (≈ 1.49 µM)	–	–	–	–	–	–	–
CO/N=C(\C(=O)N[C@@H]1C(=O)N2C(C(=O)[O-])=C(/C=C/C[N+]34CCCN3CCC4)CS[C@H]12)c1nsc(N)n1 [Example 38, 7β-[2-(5-Amino-1,2,4-thiadiazol-3-yl)-(Z)-2-methoxyiminoacetamido]-3-[(E)-3-(1,5-diazabicyclo[3,3,0]octan-1-io)-1-propen-1-yl]-3-cephem-4-carboxylate]	0.2 (≈ 0.374 µM)	≤ 0.025	≤ 0.025	0.1 (≈ 0.187 µM)	0.05 (≈ 0.0935 µM)	1.56 (≈ 2.92 µM)	–	–	–	–	–	–	–
CO/N=C(\C(=O)N[C@@H]1C(=O)N2C(C(=O)[O-])=C(/C=C/C[N+](C)(C)[C@H](CO)C(N)=O)CS[C@H]12)c1nsc(N)n1 [Example 39, 7β-[2-(5-Amino-1,2,4-thiadiazol-3-yl)-(Z)-2-methoxyiminoacetamide]-3-[(E)-3-[(1R-carbamoyl-2-hydroxyethyl)dimethylammonio]-1-propenyl]-3-cephem-4-carboxylate]	0.4 (≈ 0.721 µM)	0.05 (≈ 0.0902 µM)	≤ 0.025	0.1 (≈ 0.18 µM)	0.05 (≈ 0.0902 µM)	0.8 (≈ 1.44 µM)	≥ 3000	–	–	–	–	–	–
CC[N+](C)(C/C=C/C1=C(C(=O)[O-])N2C(=O)[C@@H](NC(=O)/C(=N\OC)c3nsc(N)n3)[C@H]2SC1)CC(N)=O (stereo partly drawn) [Example 40]	0.2 (≈ 0.371 µM)	≤ 0.025	≤ 0.025	0.05 (≈ 0.0928 µM)	≤ 0.025	0.8 (≈ 1.49 µM)	≥ 3000	–	–	–	–	–	–
CO/N=C(\C(=O)N[C@@H]1C(=O)N2C(C(=O)[O-])=C(/C=C/C[N+]34CCOC(C)(C3)OCC4)CS[C@H]12)c1nsc(N)n1 [Example 41, 7β-[2-(5-Amino-1,2,4-thiadiazol-3-yl)-(Z)-2-methoxyiminoacetamide]-3-[(E)-3-(5-aza-1-methyl-2,8-diozabicyclo[3,3,1]nonan-5-io)-1-propenyl]-3-cephem-4-carboxylate]	0.4 (≈ 0.707 µM)	0.05 (≈ 0.0884 µM)	0.05 (≈ 0.0884 µM)	0.1 (≈ 0.177 µM)	0.05 (≈ 0.0884 µM)	1.56 (≈ 2.76 µM)	≥ 3000	–	–	–	–	–	–
CO/N=C(\C(=O)N[C@@H]1C(=O)N2C(C(=O)[O-])=C(/C=C/C[N+](C)(C)[C@H](C)C(N)=O)CS[C@H]12)c1nsc(N)n1 [Example 42]	0.2 (≈ 0.371 µM)	0.05 (≈ 0.0928 µM)	≤ 0.025	0.1 (≈ 0.186 µM)	0.05 (≈ 0.0928 µM)	0.8 (≈ 1.49 µM)	–	–	–	–	–	–	–
CO/N=C(\C(=O)N[C@@H]1C(=O)N2C(C(=O)[O-])=C(/C=C/C[N+]3(C)CC(O)CC3CO)CS[C@H]12)c1nsc(N)n1 (stereo partly drawn) [Example 43]	0.4 (≈ 0.723 µM)	0.05 (≈ 0.0903 µM)	≤ 0.025	0.05 (≈ 0.0903 µM)	≤ 0.025	1.56 (≈ 2.82 µM)	–	–	–	–	–	–	–
CO/N=C(\C(=O)N[C@@H]1C(=O)N2C(C(=O)[O-])=C(/C=C/C[N+]3(CCO)CCC(C(N)=O)CC3)CS[C@H]12)c1nsc(N)n1 (stereo partly drawn) [Example 44-1]	0.4 (≈ 0.673 µM)	0.05 (≈ 0.0841 µM)	≤ 0.025	0.05 (≈ 0.0841 µM)	0.05 (≈ 0.0841 µM)	0.8 (≈ 1.35 µM)	–	–	–	–	–	–	–
CO/N=C(\C(=O)N[C@@H]1C(=O)N2C(C(=O)[O-])=C(/C=C/C[N+]3(CCO)CCC(C(N)=O)CC3)CS[C@H]12)c1nsc(N)n1 (stereo partly drawn) [Example 44-2]	–	–	–	–	–	–	–	0.4 (≈ 0.673 µM)	≤ 0.025	≤ 0.025	0.05 (≈ 0.0841 µM)	≤ 0.025	0.8 (≈ 1.35 µM)
CO/N=C(\C(=O)N[C@@H]1C(=O)N2C(C(=O)[O-])=C(/C=C/C[N+]3(CC(N)=O)CC[C@@H](O)C3)CS[C@H]12)c1nsc(N)n1 (stereo partly drawn) [Example 45-1]	0.4 (≈ 0.706 µM)	≤ 0.025	≤ 0.025	0.05 (≈ 0.0882 µM)	≤ 0.025	0.8 (≈ 1.41 µM)	–	–	–	–	–	–	–
